# Measured values: patent publication US20040259878A1, “Fluoromethotrexates and uses therefor” (priority 2003, published 2004)
# Several values for one entry are separate records, joined by “and”; a condition that tells them apart may be missing. Equal entries are not always repeated. Where two headings read alike, the source gives them in different places.
# Legend:
# [1] = test system: MTX-sensitive HT-1080 tumor xenograft; experiment: Tumor response (in vivo surviving fraction) with leucovorin rescue, HT-1080 xenograft; parameters: species or system athymic nude mice
# Procedure: At 6 hours post 3′-fluoromethotrexate administration mice received i.p. hydration of 1.0 cc normal saline and at 24 hours received leucovorin (Bedford Laboratories, Bedford, Ohio) rescue therapy (36). This protocol allows the mice to survive what would otherwise be a fatal dosage of 3′-fluoromethotrexate and is analogous to that used in high-dose MTX therapy in humans. Tumor growth was monitored post-therapy.
# The 3 perpendicular axes of the tumor were measured with a micrometer and the tumor volume modeled as a spheroid, i.e., v=π/6a·b·c, where a, b, c are the dimensions of the tumor axes in cm.
# The parameter DT0 is the mean doubling time of the untreated, control group for each xenograft tumor model and TGD is the tumor growth delay for the treated tumor (the difference in tumor doubling time between the treated tumor and DT0).
# Analysis of the tumor growth post-therapy allows for a comparison of the efficacy of MTX and 3′-fluoromethotrexate in terms of SF, the fraction of cells in the pretreatment tumor surviving therapy (Eqn. 3).
# [2] = test system: human sarcoma cell line HT-1080; experiment: In vitro cytotoxicity against HT-1080, XTT/PMS cell viability assay
Compound,"SF, in vivo surviving fraction ([1]; 200 mg/kg, HT-1080 model)","SF, in vivo surviving fraction ([1]; 400 mg/kg i.v. bolus, HT-1080 model)","IC50 ([2]; Homo sapiens, HT-1080, 24 h, read-out: IC50 for 24 h drug exposure, normal medium = RPMI-1640 medium + 10% FCS, 24 h exposure)","IC50 ([2]; Homo sapiens, HT-1080, 24 h, read-out: IC50 for 24 h drug exposure, treated medium = thymidine-free RPMI-1640 + 10% FCS, 24 h exposure)","SF, in vivo surviving fraction ([1]; mouse, in vivo)","IC50 ([2]; read-out: IC50 for 24 h drug exposure, normal medium = RPMI-1640 medium + 10% FCS, 24 h exposure)","IC50 ([2]; read-out: IC50 for 24 h drug exposure, treated medium = thymidine-free RPMI-1640 + 10% FCS, 24 h exposure)"
"CN(Cc1cnc2nc(N)nc(N)c2n1)c1ccc(C(=O)N[C@@H](CCC(=O)O)C(=O)O)cc1 [MTX, methotrexate]",0.64±0.08,0.56±0.07,445 ± 148 nM,69 ± 19 nM,,,
N-(2-Fluoro-4-amino-4-deoxy-N-methyl-pteroyl)-L-glutamic acid [FMTX],,,,,0.29±0.06 and 0.42±0.04,345 ± 117 nM,26 ± 5 nM
